# Results: patent US9200008B2 (ASKA PHARMACEUTICAL CO., LTD., priority 2010, dated 2015)
# System: Human prostate cancer cell lines (PC-3 cells)
# Assay: Measurement of cell death-inducing activity (Test Example 1)
# Assay type: cell-based
# Settings: PC-3, 48 h, 48 hours after addition, tested at 10, 1, 0.1, 0.025 and 0.00625 μmol/L, qualitative evaluation of 10 fields, read-out: Concentration showing the cell death-inducing activity (cell death-inducing rate not less than 40%)
# Description: The cell death-inducing activity of the compound represented by the formula (1) or the salt thereof was measured as follows.
# Human prostate cancer cell lines (PC-3 cells) were seeded to 6-well plates at 1×10^5 cells/2 mL/well, and cultured in the presence of 5% CO2 at 37° C. for 48 hours. Thereafter, each compound was added thereto so as to provide 10, 1, 0.1, 0.025 and 0.00625 μmol/L. As a control, DMSO was added. After the addition, the cells were continuously cultured for 48 hours. […] When the cell death-inducing rate was not less than 40%, the compound was judged to have the cell death-inducing activity.
compound,measurement,value
CCCn1cnc2cc(COC(=O)Nc3sc(-c4ccc(Cl)cc4OC)nc3C)ccc21 [Example 9-67],minimal effective concentration,0.025 µM
CCn1nc(-c2ccc(F)cc2OC)cc1NC(=O)OCc1ccc2c(c1)nc1n2CCCC1 [Example 9-266],minimal effective concentration,1 µM
COc1cc(Cl)ccc1-c1nc(C)c(NC(=O)OCc2ccc3c(ccn3C)c2)s1 [Example 9-30],minimal effective concentration,1 µM
CCc1nc(-c2ccc(C)cc2OC)sc1NC(=O)OCc1ccc2c(cnn2CC)c1 [Example 9-174],minimal effective concentration,0.025 µM
COc1cc(F)ccc1-c1cc(COC(=O)Nc2ccc3c(cnn3C)c2)n(C)n1 [Example 13-125],minimal effective concentration,1 µM
CCn1cnc2cc(COC(=O)Nc3sc(-c4ccc(F)cc4OC)nc3C)ccc21 [Example 9-58],minimal effective concentration,0.00625 µM
CCc1nc(-c2ccc(Cl)cc2OC)sc1NC(=O)OCc1ccc2c(c1)nnn2CC [Example 9-160],minimal effective concentration,0.025 µM
COc1cc(Cl)ccc1-c1cc(NC(=O)OCc2ccc3c(c2)nc2n3CCC2)n(C)n1 [Example 9-258],minimal effective concentration,0.025 µM
CCn1nc2c(c1NC(=O)OCc1ccc3c(c1)ncn3C)COc1ccccc1-2 [Example 9-321],minimal effective concentration,10 µM
COc1cc(Cl)ccc1-c1cc(NC(=O)OCc2ccc3c(c2)nc2n3CCOC2)n(C)n1 [Example 9-247],minimal effective concentration,0.00625 µM
COc1ccccc1-c1nc(C)c(C(=O)N/N=C/c2ccc3ccn(C)c3c2)s1 [Example 23-93],minimal effective concentration,0.1 µM
"Cc1cc(/C=N/NC(=O)c2snc(-c3ccc(Cl)cc3Cl)c2N)ccc1O [Example 27-14, 4-Amino-3-(2,4-dichlorophenyl)isothiazole-5-carboxylic acid[1-(4-hydroxy-3-methylphenyl)methylidene]hydrazide]",minimal effective concentration,10 µM
CCc1nc(-c2ccc(F)cc2C)sc1COC(=O)Nc1ccc2c(c1)nc1n2CCSC1 [Example 43-4],minimal effective concentration,1 µM
O=C(N/N=C/c1ccc(O)c(F)c1)c1cc(-c2ccc(Cl)cc2Cl)n[nH]1 [Example 21-18],minimal effective concentration,10 µM
CCCc1nc(-c2ccc(Cl)cc2OC)sc1COC(=O)Nc1ccc2c(c1)ncn2C [Example 13-68],minimal effective concentration,1 µM
COc1cc(Cl)ccc1-c1nc(C)c(C(=O)N/N=C/c2cccc3c2ccn3C)s1 [Example 23-95],minimal effective concentration,0.1 µM
COc1cc(/C=N/NC(=O)c2sc(-c3ccc(Cl)cc3OC)nc2C)ccc1O [Example 23-81],minimal effective concentration,10 µM
Cn1nc(-c2ccccc2C(F)(F)F)cc1NC(=O)OCc1ccc2c(cnn2C)c1 [Example 9-278],minimal effective concentration,10 µM
COc1ccccc1-c1cc(C(=O)N/N=C/c2cc(C)c(O)c(C)c2)sn1 [Example 27-8],minimal effective concentration,0.1 µM
CCn1nc(-c2ccc(Cl)cc2OC)cc1NC(=O)OCc1ccc2c(c1)ncn2CC [Example 9-224],minimal effective concentration,0.00625 µM
"COc1ccc(/C=N/NC(=O)c2cnc(-c3ccccc3C)[nH]2)cc1O [Example 25-3, 2-(2-Methylphenyl)-3H-imidazole-4-carboxylic acid[1-(3-hydroxy-4-methoxyphenyl)methylidene]hydrazide]",minimal effective concentration,10 µM
COc1ccc(/C=N/N=C(\C)c2sc(-c3ccc(Cl)cc3)nc2C)cc1O [Example 30-2],minimal effective concentration,1 µM
CCN(Cc1ccc(OC)cc1)NC(=O)c1sc(-c2ccccc2OC)nc1C [Example 16-12],minimal effective concentration,1 µM
CCc1nc(-c2ccc(C)cc2OC)sc1NC(=O)OCc1ccc2nn(CC)cc2c1 [Example 9-368],minimal effective concentration,0.1 µM
CCc1nc(-c2ccc(Cl)cc2OC)sc1NC(=O)OCc1ccc2c(cnn2CC)c1 [Example 9-173],minimal effective concentration,0.025 µM
CCn1nnc2cc(COC(=O)Nc3sc(-c4ccc(F)cc4C)nc3C)ccc21 [Example 9-27],minimal effective concentration,0.025 µM
CCn1cnc2cc(COC(=O)Nc3sc(-c4ccc(C)cc4OC)nc3C)ccc21 [Example 9-60],minimal effective concentration,0.00625 µM
COc1ccccc1-c1cc(COC(=O)Nc2ccc3c(c2)nc2n3CCCC2)n(C)n1 [Example 13-114],minimal effective concentration,0.1 µM
COc1ccc(CN(C)NC(=O)c2sc(-c3ccc(F)cc3F)nc2C)cc1 [Example 16-7],minimal effective concentration,1 µM
COc1cc(Cl)ccc1-c1cc(C(=O)N/N=C/c2ccc3c(c2)ncn3C)sn1 [Example 49-1],minimal effective concentration,0.025 µM
CCn1cnc2cc(NC(=O)OCc3cc(-c4ccc(Cl)cc4Cl)ns3)ccc21 [Example 47-12],minimal effective concentration,10 µM
CCn1ncc2cc(COC(=O)Nc3sc(-c4ccc(C)cc4OC)nc3C)ccc21 [Example 9-137],minimal effective concentration,0.00625 µM
Cc1ccc(-c2nc(C)c(COC(=O)Nc3ccc4c(c3)nc3n4CCSC3)s2)c(C)c1 [Example 43-3],minimal effective concentration,0.1 µM
CCn1nc(-c2ccc(Cl)cc2Cl)cc1NC(=O)OCc1ccc2c(cnn2C)c1 [Example 9-276],minimal effective concentration,1 µM
CCn1nc(-c2ccc(C)cc2C)cc1NC(=O)OCc1ccc2c(c1)nc(C)n2C [Example 9-240],minimal effective concentration,1 µM
Cc1nc(-c2cccc3c2OCC3)sc1NC(=O)OCc1ccc2c(c1)nnn2C [Example 9-21],minimal effective concentration,10 µM
COc1ccccc1-c1nc(C)c(C(=O)N/N=C/c2ccc(SC)cc2)s1 [Example 23-70],minimal effective concentration,0.1 µM
COc1ccccc1-c1cc(COC(=O)Nc2ccc3c(c2)nc2n3CCOC2)n(C)n1 [Example 13-95],minimal effective concentration,0.025 µM
COc1ccc(CN(C)NC(=O)c2sc(-c3cccc(C)c3C)nc2C)cc1 [Example 16-5],minimal effective concentration,10 µM
COc1cc(Cl)ccc1-c1nc(C)c(COC(=O)Nc2ccc3c(c2)nc2n3CCC2)s1 [Example 13-27],minimal effective concentration,1 µM
CCn1nc(-c2ccc(C)cc2C)cc1COC(=O)Nc1ccc2c(c1)nc1n2CCOC1 [Example 13-104],minimal effective concentration,0.025 µM
Cc1nc(-c2ccc(Cl)cc2)sc1C(=O)N/N=C/c1ccc2occc2c1 [Example 23-161],minimal effective concentration,1 µM
CCc1nc(-c2ccc(F)cc2OC)sc1NC(=O)OCc1ccc2c(c1)ncn2CC [Example 9-346],minimal effective concentration,0.025 µM
"COc1cc(Cl)ccc1-c1cc(C(=O)N/N=C/c2ccc3c(c2)nc2n3CCOC2)sn1 [Example 49-5, 3-(4-Chloro-2-methoxyphenyl)isothiazole-5-carboxylic acid[1-(3,4-dihydro-1H-2-oxa-4a,9-diaza-fluoren-7-yl)methylidene]hydrazide]",minimal effective concentration,1 µM
CCn1nc(-c2ccc(C)cc2C)cc1NC(=O)OCc1ccc2cn(C)nc2c1 [Example 9-303],minimal effective concentration,1 µM
CCc1nc(-c2ccc(C)cc2C)sc1NC(=O)OCc1ccc2c(c1)nc(C)n2C [Example 9-375],minimal effective concentration,0.1 µM
Cc1cc(/C=N/NC(=O)c2cnc(-c3ccccc3C)s2)ccc1O [Example 23-51],minimal effective concentration,10 µM
CCn1nnc2cc(COC(=O)Nc3sc(-c4ccc(Cl)cc4C)nc3C)ccc21 [Example 9-28],minimal effective concentration,0.025 µM
COc1ccc(-c2nc(C)c(NC(=O)OCc3ccc4c(c3)nc3n4CCOC3)s2)c(OC)c1 [Example 9-95],minimal effective concentration,0.025 µM
COc1ccc(/C=N/NC(=O)c2sc(-c3ccccc3)nc2C)cc1O [Example 23-53],minimal effective concentration,0.1 µM
CCn1nc(-c2ccc(C)cc2OC)cc1COC(=O)Nc1ccc2c(c1)ncn2C [Example 13-89],minimal effective concentration,0.00625 µM
COc1ccccc1-c1cc(NC(=O)OCc2ccc3c(c2)nc2n3CCOC2)n(C)n1 [Example 9-243],minimal effective concentration,0.1 µM
Cc1ccc(-c2nc(C)c(NC(=O)OCc3ccc4c(cnn4C)c3)s2)c(C)c1 [Example 9-130],minimal effective concentration,0.025 µM
"Cc1cc(Cl)ccc1-c1nc(C)c(NC(=O)OCc2ccc3c(c2)nc2n3CCSC2)s1 [Example 40-3, [2-(4-Chloro-2-methylphenyl)-4-methylthiazol-5-yl]carbamic acid 3,4-dihydro-1H-2-thia-4a,9-diazafluoren-7-ylmethyl ester]",minimal effective concentration,0.1 µM
"COc1ccc(/C=N/NC(=O)c2cc(-c3ccc(Cl)cc3)c[nH]2)cc1O [Example 24-2, 4-(4-Chlorophenyl)-1H-pyrrole-2-carboxylic acid [1-(3-hydroxy-4-methoxyphenyl)methylidene]hydrazide]",minimal effective concentration,1 µM
CCc1nc(-c2ccc(C)cc2OC)sc1NC(=O)OCc1ccc2c(c1)ncn2C [Example 9-344],minimal effective concentration,0.00625 µM
CCCc1nc(-c2ccc(Cl)cc2)sc1C(=O)N/N=C/c1ccc(OC)c(O)c1 [Example 23-102],minimal effective concentration,10 µM
CCc1nc(-c2ccc(F)cc2OC)sc1NC(=O)OCc1ccc2c(c1)nc1n2CCOC1 [Example 9-357],minimal effective concentration,0.025 µM
CCn1cnc2cc(COC(=O)Nc3sc(-c4ccc(F)cc4C)nc3C)ccc21 [Example 9-63],minimal effective concentration,0.00625 µM
CCc1ccccc1-c1nc(C)c(NC(=O)OCc2ccc3c(cnn3CC)c2)s1 [Example 9-133],minimal effective concentration,0.1 µM
COc1ccccc1-c1nc(C)c(C(=O)N/N=C/c2cc(C)c(O)c(C)c2)s1 [Example 23-120],minimal effective concentration,0.1 µM
Cc1nc(-c2ccccc2Cl)sc1C(=O)N/N=C/c1ccc(OC(F)F)c(O)c1 [Example 23-116],minimal effective concentration,1 µM
COc1cc(F)ccc1-c1cc(NC(=O)OCc2ccc3c(c2)nc2n3CCOC2)n(C)n1 [Example 9-245],minimal effective concentration,0.025 µM
CCc1ccccc1-c1nc(C)c(NC(=O)OCc2ccc3nn(CC)cc3c2)s1 [Example 9-151],minimal effective concentration,1 µM
CCc1nc(-c2ccc(F)cc2C)sc1COC(=O)Nc1ccc2c(c1)ncn2C [Example 13-149],minimal effective concentration,0.025 µM
